Patent publication US5411960A, “Substituted pyrroloanthracenes and -diones” (Bayer Aktiengesellschaft, priority 1993, dated 1995)

Each compound was assayed on human T cells (monocyte-free) (assay: Inhibition of 5-HT-dependent T cell proliferation). Conditions: inhibition of T cell proliferation stimulated with PWM (1:200) and 5-HT (100 μm), 3H-thymidine incorporation, 7 days, test range 33 μM-0.1 μM.
Assay type: cell-based
From the text: The in vitro activity of the compounds according to the invention results from their capability to inhibit T cell proliferation, which is previously stimulated by serotonin.
Peripheral mononuclear blood cells (PBMC) are obtained from the buffy coat of the blood of healthy subjects. After isolation by means of isolymph gradients (Pharmacia), the PBMC are washed twice and used directly. Purified T cells are obtained by E rosette formation with sheep erythrocytes [cf. Blue, M. -L., J. F. Daley, H. Levine, K. A. Craig and S. F. Schlossmann, 1986, Biosynthesis and surface expression of T8 by peripheral blood T4+ cells in vitro, J. Immunol. 137, 1202]. Monocytes are partially removed by adhesion to tissue culture plates or flasks. PBMC, T cells or purified T cells (depleted in monocytes) at 5×10^5 /ml, 100 µl/well are cultured in RPMI 1640 medium with 10% fetal calf serum (GIBCO) and L-glutamine in 96-well microculture plates (Becton-Dickinson) under a 5% CO2 atmosphere at 37° C. for 7 days. The cultures are treated with 1 μCi of ^3 H-thymidine for 6 h on the 7th day and collected on filter paper, and the incorporated radioactivity is determined by means of liquid scintillation counting.
The test substances are dissolved in 10 mM HCl in order to achieve a final concentration of 1 mM in each case. The compounds are diluted serially 3× with medium in order to obtain a final concentration between 33 μM-0.1 μM. PWM (1:200, pokeweed mitogen) and 5-HT (100 μm, serotonin), which contain the test substances, are added to monocyte-free human T cells. The positive control (maximum proliferation ) is obtained from cultures containing T cells, PWM and 5-HT. The negative control (minimal proliferation) is obtained from cultures containing T cells and PWM without 5-HT. The inhibitory activity of the test substances is expressed as the IC50 in μM. (see also WO 92/04015)

First: O=C1C2C3c4ccccc4C(c4ccccc43)C2C(=O)N1CCCN1CC2CCN(c3ccccc3)C2C1 (centres unmarked) [Example 2]
Second: c1ccc(N2CCC3CN(CCCN4CC5C6c7ccccc7C(c7ccccc76)C5C4)CC32)cc1 (centres unmarked) [Example 10]
The IC50 of the first is 5-fold higher: 5 µM for the first, 1 µM for the second. The second is the more potent here.

O=C1C2C3c4ccccc4C(c4ccccc43)C2C(=O)N1CCCN1CC2C3C=CC(C4CCC34)C2C1 (centres unmarked) [Example 5] and O=C1C2C3c4ccccc4C(c4ccccc43)C2C(=O)N1CCCN1CC2C3C=CC(C4CC34)C2C1 (centres unmarked) [Example 1, 13-[3-(4,6-Etheno-perhydro-cycloprop[f]isoindol-2-yl)propyl]-9,10-dihydro-9,10-[3', 4']-pyrroloanthracene-12,14[11H,15H) -dione] are within 1.5-fold of each other in IC50: 4 µM for the first, 5 µM for the second.

First: O=C1C2C3c4ccccc4C(c4ccccc43)C2C(=O)N1CCCN1CC[Si](c2ccccc2)(c2ccccc2)CC1 (centres unmarked) [Example 4]
Second: O=C1C2C3c4ccccc4C(c4ccccc43)C2C(=O)N1CCCN1CC2CC=CC(CO)C2C1 (centres unmarked) [Example 3]
The IC50 of the first is 1.5-fold lower: 20 µM for the first, 30 µM for the second. The first is the more potent here.

Going from C1=CC2C3CCC3C1C1CN(CCCN3CC4C5c6ccccc6C(c6ccccc65)C4C3)CC21 (centres unmarked) [Example 11] to c1ccc(CN2CCOC3CN(CCCN4CC5C6c7ccccc7C(c7ccccc76)C5C4)CC32)cc1 (centres unmarked) [Example 9], the IC50 rises from 1 µM to 20 µM (20-fold).
